Reference: PMC7614227, “Structural Basis of Mammalian Respiratory Complex I Inhibition by Medicinal Biguanides” (Science (New York, N.Y.), 2023)
pIC50: −log10 of the molar value.

What was measured:
[1] = target: T1, complex I catalysis in bovine heart mitochondrial membranes (Bos taurus, UniProt P03887+P03898+P17694+P42026); assay: NADH:O2 oxidoreduction by bovine heart mitochondrial membranes; assay type: biochemical
T1 construct: Fresh cow hearts were purchased from an abattoir; tissue C; Humphreys and Sons, Chelmsford, U.K. (abattoir); host or cells: bovine heart mitochondrial membranes

[2] = target: T2, detergent-solubilized, purified bovine complex I (Bos taurus, UniProt P03887+P03898+P17694+P42026); assay: NADH:decylubiquinone (NADH:DQ) oxidoreduction by purified complex I; assay type: biochemical
T2 construct: from tissue; host or cells: bovine heart mitochondrial membranes, solubilized in DDM, Q-Sepharose and Superose 6 chromatography
Description: (§1) and filtered (0.2 µM). The complexes were then separated by ion-exchange chromatography (Q-
(§2) Sepharose, GE Healthcare, as described previously (62)) and complex I-containing fractions
(§3) pooled and concentrated using a 50 kDa MWCO spin column (Merck Millipore). The samples
(§4) were clarified using a Spin-X 0.22 µm centrifugal filter (Corning) then applied to a Superose 6
(§5) Increase 5/150 (inhibitor-free dataset) or 10/300 column (biguanide-inhibited dataset) (GE
(§6) Healthcare) and eluted in 20 mM Tris-HCl (pH 7.14 at 20 ° C), 150 mM NaCl and 0.05% DDM.
(§7) Complex I elutes as a monodisperse peak at ~ 1.6 or 13 mL from the superose 6 increase 5/150 or
(§8) 10/300 columns, respectively (Fig. S3). The peak fractions for the biguanide-inhibited dataset were
(§9) concentrated using a 50 kDa MWCO spin column (Merck Millipore) and the protein concentration
(§10) quantified using a nanodrop UV-vis spectrophotometer (e280 = 0.2 mg-1 mL); IM1092 was then […]
(§11) µg of purified complex I was reduced with 10 mM dithiothreitol and analyzed on a Novex Tris- […]
(§12) NADH:O2 oxidoreduction by membranes was measured at 10 µg-protein mL-1 using 200 μM […]
(§13) assays. NADH:decylubiquinone (NADH:DQ) oxidoreduction by complex I was measured at 0.5 […]
(§14) measured by linear regression of the maximal slope and quantified by the absorbance of NADH at […]
(§15) was determined to evaluate the active/deactive ratio by incubating the membranes (2 mg-protein […]

[3] = test system: HEPG2 C3A cells; assay: Cellular oxygen consumption (Seahorse XFe96, rotenone-sensitive OCR); assay type: cell-based
Description: from the weighed sample (1.15 mg) and solvent (0.78956g) masses of 4.31 mM, implying a purity of 93%. The proton NMR spectrum is consistent with the presented chemical structure and with the described shifts for this compound (27). The shifts observed here were ¹H NMR (DMSO, 400 […]
Cellular oxygen consumption measurements
HEPG2 C3A (ATCC CRL10741) cells were a kind gift from AstraZeneca and were authenticated by STR profiling (Eurofins). Cells were grown in Dulbecco's modified Eagle's medium (DMEM, Thermo Fisher Scientific) containing 10 mM glucose supplemented with 10% fetal bovine serum (Thermo Fisher Scientific) at 37 °C in 5% CO2. Per well, 2×10^4 cells were plated into an XFe96 (Agilent) cell plate and incubated for 24 h at 37 °C in 5% CO2. […] OCRs (oxygen consumption rates) were measured in a XFe96 Seahorse extracellular flux analyzer; 2 μM rotenone was used to inhibit complex I at the end of the assay. To calculate the normalized rotenone-sensitive OCR rates, the rotenone-insensitive rates (determined at the end of the experiment) were subtracted, and the traces normalized to 100% at the measurement before IM1092 addition. […] IC50 values were calculated using the normalized rates, following 6 hours of incubation […]

[4] = test system: T3, complex I in bovine heart mitochondrial membranes; assay: NEM sensitivity of NADH:O2 activity (active/deactive ratio); assay type: biochemical; conditions: as-prepared membranes incubated with 200 μM IM1092 and NEM at 4 °C
T3 construct: Fresh cow hearts were purchased from an abattoir; tissue C; Humphreys and Sons, Chelmsford, U.K. (abattoir); host or cells: bovine heart mitochondrial membranes
Description: as §1, §2, §3, §4, §5, §6, §7, §8, §9, §10, §11, §12, §13, §14, §15

[5] = test system: mitochondrial glycerophosphate dehydrogenase (mGPD); conditions: cited from earlier work
[6] = Fig. 1B, membranes of differing deactive complex I content, 1st labelled value (deactive content not given)
[7] = Fig. 1B, membranes of differing deactive complex I content, 2nd labelled value (deactive content not given)
[8] = Fig. 1B, membranes of differing deactive complex I content, 3rd labelled value (deactive content not given)
[9] = Fig. 1C, pH 9D(i): pH 9 deactivated membranes with antimycin A and AOX
[10] = Fig. 1C, pH 9D: pH 9 deactivated membranes

Row | Structure (SMILES) | pIC50 [1, 6] | pIC50 [1, 7] | pIC50 [1, 8] | pIC50 ([1]; Fig. 1C, pH 6) | pIC50 ([1]; Fig. 1C, pH 7) | pIC50 ([1]; Fig. 1C, pH 8) | pIC50 ([1]; Fig. 1C, pH 9) | pIC50 [1, 9] | pIC50 [1, 10] | pIC50 ([2]; catalysis of detergent-solubilized, purified bovine complex I (NADH:DQ)) | control catalytic rate recovered after dilution into inhibitor-free assay buffer ([2]; complex I incubated with 350 μM IM1092 as for cryo-EM grids, then diluted, reversibility) | effect on cellular oxygen consumption [3] | deactive content of membranes [4] | inhibition of human mGPD [5]
1 | N=C(N=C(N)N)NCCc1ccc(I)c(Cl)c1 [IM1092] | 4.49 | 4.70 | 5.40 | 4.37 | 4.57 | 4.68 | 5.40 | 6.09 | 6.07 | 4.07 | 98% | inhibits cellular oxygen consumption | essentially the same deactive content as biguanide-free controls | –
2 | CN(C)C(=N)N=C(N)N [Metformin, metformin, reference compound] | 1.00 | 1.28 | 1.48 | – | – | 1.42 | 2.05 | 2.10 | 1.82 | – | – | – | – | not to inhibit
